Consider 13 compounds from patent US20070219210A1, “Amidopyrazole Derivative” (Daiichi Pharmaceutical Co., LTD., priority 2003, published 2007).

Assay [1] has as its system collagen-induced platelet coagulation. The experiment in a line: Inhibitory effect on collagen-induced platelet coagulation in platelet rich plasma. It is filed as cell-based. The note with it: human platelet rich plasma, 37° C., coagulation induced with collagen; read-out: Inhibition of collagen-induced platelet coagulation, IC50. The method, then: Human blood was collected by using 1/10 volume of 3.13% sodium citrate as an anticoagulant, and the blood was centrifuged at 180 g for 10 minutes to separate platelet rich plasma (PRP), which was the upper layer. After collecting the upper layer PRP, the remaining lower layer was centrifuged at 1600 g for 10 minutes, and platelet poor plasma (PPP) in the upper layer was collected. 1 μl solution of the compound of the Examples was added to 200 μl of the PRP, and after allowing the sample to stand at 37° C. for 2 minutes, 2 μl of collagen was added in order to induce platelet coagulation. Platelet coagulation rate was measured with PAM-12C (SSR Engineering).

A further assay deals with T1, Cyclooxygenase-1 (COX-1) (Ovis aries, UniProt P05979).
T1 construct: purchased Cayman Chemical Company 560101
T1 sequence (P05979 25-600): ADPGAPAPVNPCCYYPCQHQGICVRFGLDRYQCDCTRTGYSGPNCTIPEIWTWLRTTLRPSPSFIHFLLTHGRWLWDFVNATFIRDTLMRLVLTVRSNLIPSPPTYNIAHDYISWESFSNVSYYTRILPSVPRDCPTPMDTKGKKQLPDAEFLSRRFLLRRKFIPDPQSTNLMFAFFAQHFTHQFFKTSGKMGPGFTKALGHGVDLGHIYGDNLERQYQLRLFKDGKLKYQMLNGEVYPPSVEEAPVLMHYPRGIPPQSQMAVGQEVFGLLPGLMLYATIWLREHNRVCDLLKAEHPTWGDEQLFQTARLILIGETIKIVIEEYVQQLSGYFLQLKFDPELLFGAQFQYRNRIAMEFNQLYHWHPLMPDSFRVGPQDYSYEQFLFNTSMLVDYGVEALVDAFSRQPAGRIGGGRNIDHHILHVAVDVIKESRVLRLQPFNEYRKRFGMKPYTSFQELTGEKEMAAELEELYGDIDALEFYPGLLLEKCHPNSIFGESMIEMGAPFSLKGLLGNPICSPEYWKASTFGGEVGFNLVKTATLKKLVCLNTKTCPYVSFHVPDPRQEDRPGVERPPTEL
Description: COX Inhibitor Screening Assay Kit (Cayman), PGF2α by ELISA, COX-1. It is filed as biochemical. The note with it: compound at 50 μm; relative to PGF2α produced without compound (100%). The protocol:
Inhibitory activity against COX-1 and COX-2 of the compounds produced in the Examples was measured by using COX Inhibitor Screening Assay Kit (Catalog Nos. 560101 and 560121) purchased from Cayman Chemical Company.
Before starting the measurement, reaction buffer, heme, arachidonic acid, SnCl2, EIA buffer, washing buffer, prostaglandin (PG) screening EIA standard, PG screening acetylcholine esterase (AchE), tracer (chromogenic enzyme HRP conjugate), and PC screening EIA antiserum were prepared ready for use.
The reaction mixture containing the compound of the Examples (50 μM) and COX-1 or COX-2 was allowed to stand at 37° C. or 10 minutes, and after adding 10 μl of arachidonic acid, the solution was again allowed to stand at 37° C. for 2 minutes. After the reaction, the reaction was terminated by adding 50 μl of 1N-hydrochloric acid, and 100 μl solution of SnCl2 was added, and the reaction mixture was allowed to stand at room temperature for 5 minutes.
50 μl of antiserum (rabbit anti-PGF2α antibody) was placed in the wells of 96 well plate that had been coated with mouse anti-rabbit IgG and 50 μl of the 2000-fold diluted PGF2α-containing liquid described above and 50 μl of AchE tracer were added to the well in this order, and the mixture was allowed to stand at room temperature for 18 hours. The wells were washed 5 times with the washing buffer to remove an excessive AchE tracer, and 200 μl of Ellman reagent was added. After leaving the plate in a dark room for 60 minutes, absorbance was measured at 405 nm.
A calibration curve was obtained by using the PG screening EIA standard, and the amount of PGF2α produced was determined from the absorption. Inhibitory rate at 50 μM of the compound of the Examples against COX-1 or COX-2 was calculated.
It is to be noted that the inhibitory rate was calculated in relation to the amount of the PGF2α produced by the reaction liquid free from the compounds of the Examples, which was taken 100%.

On to `CC(C)(C)NC(=O)c1cc(-c2ccc(N)cn2)n(-c2cccnc2)n1` [Example 71], for which the IC50 in assay [1] was determined as 23.1 nM. The “Inhibitory effect against COX-1 at 50 μm (% inhibition)” value (“Inhibitory effect … (% inhibition)” for short) at Cyclooxygenase-1 (COX-1) amounted to 7.9 % inhibition.

On to `CC(C)(C)NC(=O)c1cc(-c2ccc(CN)cn2)n(-c2ccccc2)n1` [Example 74, N-tert-Butyl-5-(5-aminomethyl-2-pyridyl)-1-phenyl-1H-pyrazole-3-carboxamide], for which, in assay [1], the IC50 was 170 nM. Further, the “Inhibitory effect … (% inhibition)” value on Cyclooxygenase-1 (COX-1) turned out to be 38.8 % inhibition.

Turning to `CC(C)(C)NC(=O)c1cc(-c2ccc(F)cn2)n(-c2cccnc2)n1` [Example 85, N-tert-Butyl-5-(5-fluoro-2-pyridyl)-1-(3-pyridyl)-1H-pyrazole-3-carboxamide], the IC50 in assay [1] was 54 nM.

With `CC(C)(C)NC(=O)c1cc(-c2cnc(N)cn2)n(-c2cccnc2)n1` [Example 95, N-tert-Butyl-5-(5-amino-2-pyrazinyl)-1-(3-pyridyl)-1H-pyrazole-3-carboxamide], the IC50 in assay [1] was determined as 160 nM. Moreover, the “Inhibitory effect … (% inhibition)” value on Cyclooxygenase-1 (COX-1) is given as −9.1 % inhibition.

As to `CC(C)(CF)NC(=O)c1cc(-c2ccc(N)cn2)n(-c2cccnc2)n1` [Example 98, N-(2-Fluoro-1,1-dimethylethyl)-5-(5-amino-2-pyridyl)-1(3-pyridyl)-1H-pyrazole-3-carboxamide], the concentration for half-maximal inhibition (IC50) in assay [1] worked out at 43 nM. Also, the “Inhibitory effect … (% inhibition)” value at Cyclooxygenase-1 (COX-1) is −20.4 % inhibition.

For the compound `CC(C)(CF)NC(=O)c1cc(-c2cnc(N)cn2)n(-c2cccnc2)n1` [Example 113, N-(2-Fluoro-1,1-dimethylethyl)-5-(5-amino-2-pyrazinyl)-1-(3-pyridyl)-1H-pyrazole-3-carboxamide], in assay [1], the half-maximal inhibitory concentration (IC50) came out at 150 nM. The “Inhibitory effect … (% inhibition)” value on Cyclooxygenase-1 (COX-1) is −2.8 % inhibition.

Consider `COc1ccc(-n2nc(C(=O)N(C)C)cc2-c2ccn(C)c2)cn1` [Example 116, N,N-Dimethyl-1-(6-methoxy-3-pyridyl)-5-(1-methyl-1H-pyrrol-3-yl)-1H-pyrazole-3-carboxamide], for which, in assay [1], the half-inhibitory concentration (IC50) amounted to 20 nM.

In the case of `Cc1ccc(-n2nc(C(=O)NC(C)(C)C)cc2-c2cn(C)cn2)cn1` [Example 122, N-tert-Butyl-5-(1-methyl-1H-imidazol-4-yl)-1-(6-methyl-3-pyridyl)-1H-pyrazole-3-carboxamide], the IC50 in assay [1] worked out at 100 nM.

For the compound `C#Cc1ccc(-c2cc(C(=O)NC(C)(C)CF)nn2-c2cccnc2)nc1` [Example 132, 5-(5-Ethynyl-2-pyridyl)-N-(2-fluoro-1,1-dimethylethyl)-1-(3-pyridyl)-1H-pyrazole-3-carboxamide], in assay [1], the 50% inhibitory concentration (IC50) was determined as 32 nM.

Regarding `CC(C)(C)NC(=O)c1cc(-c2ccc(CNS(C)(=O)=O)cn2)n(-c2cccnc2)n1` [Example 137, N-tert-Butyl-5-[5-(methanesulfonylamino)methyl-2-pyridyl]-1-(3-pyridyl)-1H-pyrazole-3-carboxamide], the IC50 in assay [1] was determined as 230 nM. Besides, the “Inhibitory effect … (% inhibition)” value at Cyclooxygenase-1 (COX-1) was −5.1 % inhibition.

Turning to `CC(=O)NCc1ccc(-c2cc(C(=O)NC(C)(C)C)nn2-c2cccnc2)nc1` [Example 138, N-tert-Butyl-5-[5-(acetylamino)methyl-2-pyridyl]-1-(3-pyridyl)-1H-pyrazole-3-carboxamide], the IC50 in assay [1] was 160 nM. The “Inhibitory effect … (% inhibition)” value on Cyclooxygenase-1 (COX-1) was 0.7 % inhibition.

For `COC(=O)NCc1ccc(-c2cc(C(=O)NC(C)(C)C)nn2-c2cccnc2)nc1` [Example 139, Methyl {6-[5-(N-tert-butylcarbamoyl)-2-(3-pyridyl)-2H-pyrazol-3-yl]-3-pyridylmethyl}carbamate], the IC50 in assay [1] was determined as 71 nM. Moreover, the “Inhibitory effect … (% inhibition)” value on Cyclooxygenase-1 (COX-1) is reported as −25.8 % inhibition.

Consider `Cc1ccc(-c2cc(C(=O)NC(C)(C)CO)nn2-c2cccnc2)nc1` [Example 152, N-(2-Hydroxy-1,1-dimethylethyl)-5-(5-methyl-2-pyridyl)-1-(3-pyridyl)-1H-pyrazole-3-carboxamide], for which the 50% inhibitory concentration (IC50) in assay [1] came out at 110 nM. The “Inhibitory effect … (% inhibition)” value at Cyclooxygenase-1 (COX-1) is reported as −8.7 % inhibition.
